According to PubChem BioAssay AID1845199 (Molecular Pharmacology Branch, DTP, NCI, 2023):
pIC50: −log10 of the molar value.

Test system: 556581-035-R-J1 tumor spheroid viability, % test/control
Test: Anticancer human tumor 556581-035-R-J1 patient-derived ovarian carcinoma cell line growth inhibition
Conditions: spheroids with HUVEC and MSC; for pIC50: curve of first compound; for viability, T/C: stronger effect = lower value
Outline: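 Single agents and combinations were tested on spheroids built from tumor cells plus HUVEC and hMSC, at half-log dilutions starting at or near clinical Cmax, else 10 microM; final DMSO 0.25% (v/v).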

[1] = second compound 30 pM, first compound 0.0316 µM
[2] = second compound 30 pM, first compound 0.1 µM
[3] = second compound 30 pM, first compound 0.316 µM
[4] = second compound 30 pM, first compound 1 µM
[5] = second compound 30 pM, first compound 3.16 µM
[6] = second compound 30 pM, first compound 10 µM
[7] = second compound 94.9 pM, first compound 0.0316 µM
[8] = second compound 94.9 pM, first compound 0.1 µM
[9] = second compound 94.9 pM, first compound 0.316 µM
[10] = second compound 94.9 pM, first compound 1 µM
[11] = second compound 94.9 pM, first compound 3.16 µM
[12] = second compound 94.9 pM, first compound 10 µM
[13] = second compound 0.0003 µM, first compound 0.0316 µM
[14] = second compound 0.0003 µM, first compound 0.1 µM
[15] = second compound 0.0003 µM, first compound 0.316 µM
[16] = second compound 0.0003 µM, first compound 1 µM
[17] = second compound 0.0003 µM, first compound 3.16 µM
[18] = second compound 0.0003 µM, first compound 10 µM
[19] = second compound 0.000949 µM, first compound 0.0316 µM
[20] = second compound 0.000949 µM, first compound 0.1 µM
[21] = second compound 0.000949 µM, first compound 0.316 µM
[22] = second compound 0.000949 µM, first compound 1 µM
[23] = second compound 0.000949 µM, first compound 3.16 µM
[24] = second compound 0.000949 µM, first compound 10 µM
[25] = second compound 0.003 µM, first compound 0.0316 µM
[26] = second compound 0.003 µM, first compound 0.1 µM
[27] = second compound 0.003 µM, first compound 0.316 µM
[28] = second compound 0.003 µM, first compound 1 µM
[29] = second compound 0.003 µM, first compound 3.16 µM
[30] = second compound 0.003 µM, first compound 10 µM
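Further: spheroids exposed to compounds for 7 days before viability read.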

Structure (SMILES) | pIC50 (second compound 30 pM) | pIC50 (second compound 94.9 pM) | pIC50 (second compound 0.0003 µM) | pIC50 (second compound 0.000949 µM) | pIC50 (second compound 0.003 µM) | viability, T/C [1] | viability, T/C [2] | viability, T/C [3] | viability, T/C [4] | viability, T/C [5] | viability, T/C [6] | viability, T/C [7] | viability, T/C [8] | viability, T/C [9] | viability, T/C [10] | viability, T/C [11] | viability, T/C [12] | viability, T/C [13] | viability, T/C [14] | viability, T/C [15] | also measured
CC(C)n1c(=O)n(C)c2cnc3cc(F)c(-c4ccc(OCCCN5CCCCC5)nc4)cc3c21 + COc1cc2c(cc1O)CCNC21CSC2c3c(OC(C)=O)c(C)c4c(c3C(COC1=O)N1C(O)C3Cc5cc(C)c(OC)c(O)c5C(C21)N3C)OCO4 | < 5.00 | < 5.00 | < 5.00 | > 7.50 | > 7.50 | 86.3% | 97.8% | 96.5% | 91% | 89.2% | 73.7% | 94.9% | 98% | 95.6% | 95.6% | 86% | 66.6% | 96.1% | 96.8% | 98.8% | viability, T/C [16]: 97.7%; viability, T/C [17]: 84.4%; viability, T/C [18]: 62.3%; viability, T/C [19]: 44.8%; viability, T/C [20]: 35%; viability, T/C [21]: 37.1%; viability, T/C [22]: 48.5%; viability, T/C [23]: 39.1%; viability, T/C [24]: 17.6%; viability, T/C [25]: 0.76%; viability, T/C [26]: 1.38%; viability, T/C [27]: 0.61%; viability, T/C [28]: 0.59%; viability, T/C [29]: 0.42%; viability, T/C [30]: 0.65%
CC1COCCN1c1cc(-c2ccnn2C)c2ccnc(-c3ccn[nH]3)c2n1 (stereo not given) + COc1cc2c(cc1O)CCNC21CSC2c3c(OC(C)=O)c(C)c4c(c3C(COC1=O)N1C(O)C3Cc5cc(C)c(OC)c(O)c5C(C21)N3C)OCO4 | 6.10 | 6.37 | 7.23 | > 7.50 | > 7.50 | 93.9% | 74.6% | 59.1% | 48.5% | 38.2% | 34.4% | 73.7% | 62.5% | 51.8% | 44.2% | 38% | 34.4% | 53.6% | 45.7% | 43.1% | viability, T/C [16]: 43.8%; viability, T/C [17]: 37.6%; viability, T/C [18]: 32.3%; viability, T/C [19]: 7.45%; viability, T/C [20]: 4.92%; viability, T/C [21]: 5.53%; viability, T/C [22]: 6.39%; viability, T/C [23]: 3.31%; viability, T/C [24]: 0.59%; viability, T/C [25]: 0.82%; viability, T/C [26]: 0.83%; viability, T/C [27]: 1.19%; viability, T/C [28]: 0.43%; viability, T/C [29]: 0.43%; viability, T/C [30]: 0.72%
COc1cc(C)[nH]c(=O)c1CN1CCc2c(Cl)cc(C(OC)C3COC3)c(Cl)c2C1=O (stereo not given) + COc1cc2c(cc1O)CCNC21CSC2c3c(OC(C)=O)c(C)c4c(c3C(COC1=O)N1C(O)C3Cc5cc(C)c(OC)c(O)c5C(C21)N3C)OCO4 | < 5.00 | < 5.00 | < 5.00 | > 7.50 | > 7.50 | 106% | 108% | 105% | 115% | 116% | 113% | 103% | 101% | 108% | 111% | 108% | 110% | 92.4% | 95% | 100% | viability, T/C [16]: 101%; viability, T/C [17]: 98.2%; viability, T/C [18]: 93.7%; viability, T/C [19]: 44.6%; viability, T/C [20]: 46.5%; viability, T/C [21]: 41.4%; viability, T/C [22]: 36.7%; viability, T/C [23]: 32.1%; viability, T/C [24]: 17.6%; viability, T/C [25]: 0.61%; viability, T/C [26]: 0.67%; viability, T/C [27]: 2.15%; viability, T/C [28]: 0.7%; viability, T/C [29]: 0.66%; viability, T/C [30]: 1.02%
